The record followed here is patent publication US20210070748A1, “INHIBITORS OF BRUTONS TYROSINE KINASE” (Pharmacyclics LLC, priority 2015, published 2021).

SMILES strings stand for the structures.

Holding throughout (assay type): biochemical
The target of one assay is T1, TEC (Homo sapiens, UniProt P42680).
T1 sequence (P42680 1-631): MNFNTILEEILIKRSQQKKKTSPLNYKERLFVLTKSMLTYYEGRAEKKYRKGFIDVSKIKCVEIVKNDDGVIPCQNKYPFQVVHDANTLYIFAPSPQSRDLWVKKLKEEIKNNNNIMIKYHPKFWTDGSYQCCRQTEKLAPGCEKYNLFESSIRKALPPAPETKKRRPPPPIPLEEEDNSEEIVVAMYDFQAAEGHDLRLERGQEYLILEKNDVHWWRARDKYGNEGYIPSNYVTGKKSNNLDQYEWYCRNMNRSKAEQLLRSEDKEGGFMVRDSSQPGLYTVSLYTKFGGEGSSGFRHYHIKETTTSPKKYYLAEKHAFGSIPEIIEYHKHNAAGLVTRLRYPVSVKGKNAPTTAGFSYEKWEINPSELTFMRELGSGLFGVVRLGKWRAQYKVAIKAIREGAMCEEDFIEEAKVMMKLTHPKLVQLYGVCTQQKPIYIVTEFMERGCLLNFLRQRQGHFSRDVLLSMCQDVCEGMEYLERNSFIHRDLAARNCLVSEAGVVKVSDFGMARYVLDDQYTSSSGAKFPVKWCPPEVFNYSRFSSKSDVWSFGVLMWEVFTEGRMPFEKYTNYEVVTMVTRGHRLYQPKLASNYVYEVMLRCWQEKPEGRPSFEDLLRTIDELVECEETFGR
In words: Inhibition of a panel of kinases, in vitro HotSpot kinase assay: TEC. As to conditions: D-compounds panel data; 1 μM ATP. How it is done:
(§1) The degree of inhibition of a panel of kinases is determined using the in vitro HotSpot kinase assay (purified enzymes, ^33P-ATP, an appropriate substrate and 1 μM ATP).

Another assay concerns the target SRC (Homo sapiens, UniProt P12931). In words: Inhibition of a panel of kinases, in vitro HotSpot kinase assay: SRC. To be noted: D-compounds panel data; 1 μM ATP. How it is done: as §1
In another assay the target is LCK (Homo sapiens, UniProt P06239). In words: Inhibition of a panel of kinases, in vitro HotSpot kinase assay: LCK. To be noted: D-compounds panel data; 1 μM ATP; read-out: IC50 LCK.
Chain of LCK (P06239 whole entry): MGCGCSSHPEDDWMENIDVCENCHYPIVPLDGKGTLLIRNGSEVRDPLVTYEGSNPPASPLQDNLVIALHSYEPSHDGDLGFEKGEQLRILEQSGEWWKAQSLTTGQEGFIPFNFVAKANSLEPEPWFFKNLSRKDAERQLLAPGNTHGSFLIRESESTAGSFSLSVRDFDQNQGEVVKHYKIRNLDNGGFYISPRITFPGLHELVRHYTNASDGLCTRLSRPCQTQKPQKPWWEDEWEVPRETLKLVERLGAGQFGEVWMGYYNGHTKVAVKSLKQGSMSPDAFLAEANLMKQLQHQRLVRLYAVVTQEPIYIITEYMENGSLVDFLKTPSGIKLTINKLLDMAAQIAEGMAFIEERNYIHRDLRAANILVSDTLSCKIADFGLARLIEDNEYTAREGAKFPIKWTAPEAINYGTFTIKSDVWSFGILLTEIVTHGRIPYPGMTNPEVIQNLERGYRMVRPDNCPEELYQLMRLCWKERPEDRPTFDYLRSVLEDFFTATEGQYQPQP
A further assay addresses T2, ITK (Homo sapiens, UniProt Q08881).
T2 sequence (Q08881 1-620): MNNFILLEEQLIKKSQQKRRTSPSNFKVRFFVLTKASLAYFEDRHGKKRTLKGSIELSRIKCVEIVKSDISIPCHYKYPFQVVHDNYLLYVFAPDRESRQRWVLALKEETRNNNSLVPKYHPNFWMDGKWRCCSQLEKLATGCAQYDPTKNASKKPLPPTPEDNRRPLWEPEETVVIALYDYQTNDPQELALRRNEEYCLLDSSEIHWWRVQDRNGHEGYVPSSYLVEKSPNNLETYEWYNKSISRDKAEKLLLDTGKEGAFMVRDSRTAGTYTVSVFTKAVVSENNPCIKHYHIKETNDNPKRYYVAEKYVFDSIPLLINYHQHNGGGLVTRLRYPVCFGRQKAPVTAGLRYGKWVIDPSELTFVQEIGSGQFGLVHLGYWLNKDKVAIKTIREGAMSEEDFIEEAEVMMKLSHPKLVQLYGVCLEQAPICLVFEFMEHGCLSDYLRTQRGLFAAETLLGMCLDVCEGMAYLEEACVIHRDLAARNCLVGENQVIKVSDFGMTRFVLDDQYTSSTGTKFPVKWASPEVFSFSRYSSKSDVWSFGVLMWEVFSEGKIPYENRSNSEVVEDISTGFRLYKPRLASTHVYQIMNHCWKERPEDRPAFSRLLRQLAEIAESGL
In words: Inhibition of a panel of kinases, in vitro HotSpot kinase assay: ITK. As to conditions: D-compounds panel data; 1 μM ATP. As to the method:
as §1

The next assay deals with EGFR (Homo sapiens, UniProt P00533). In words: Inhibition of a panel of kinases, in vitro HotSpot kinase assay: EGFR. As to conditions: D-compounds panel data; 1 μM ATP. As to the method:
as §1

Chain of SRC (P12931 whole entry): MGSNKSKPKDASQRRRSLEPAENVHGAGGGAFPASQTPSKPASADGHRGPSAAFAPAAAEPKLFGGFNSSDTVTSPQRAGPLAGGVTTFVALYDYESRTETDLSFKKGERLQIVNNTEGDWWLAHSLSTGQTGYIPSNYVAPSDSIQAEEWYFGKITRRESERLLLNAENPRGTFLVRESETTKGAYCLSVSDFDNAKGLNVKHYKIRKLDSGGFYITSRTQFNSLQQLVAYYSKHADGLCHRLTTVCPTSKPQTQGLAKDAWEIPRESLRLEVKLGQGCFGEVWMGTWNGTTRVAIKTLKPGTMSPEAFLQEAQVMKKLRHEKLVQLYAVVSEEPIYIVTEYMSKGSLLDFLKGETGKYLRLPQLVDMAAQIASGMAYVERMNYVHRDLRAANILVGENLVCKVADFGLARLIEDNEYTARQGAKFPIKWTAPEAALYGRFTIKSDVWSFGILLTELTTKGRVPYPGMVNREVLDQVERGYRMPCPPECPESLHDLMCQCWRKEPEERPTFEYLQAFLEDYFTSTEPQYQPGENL
Chain of EGFR (P00533 25-1210): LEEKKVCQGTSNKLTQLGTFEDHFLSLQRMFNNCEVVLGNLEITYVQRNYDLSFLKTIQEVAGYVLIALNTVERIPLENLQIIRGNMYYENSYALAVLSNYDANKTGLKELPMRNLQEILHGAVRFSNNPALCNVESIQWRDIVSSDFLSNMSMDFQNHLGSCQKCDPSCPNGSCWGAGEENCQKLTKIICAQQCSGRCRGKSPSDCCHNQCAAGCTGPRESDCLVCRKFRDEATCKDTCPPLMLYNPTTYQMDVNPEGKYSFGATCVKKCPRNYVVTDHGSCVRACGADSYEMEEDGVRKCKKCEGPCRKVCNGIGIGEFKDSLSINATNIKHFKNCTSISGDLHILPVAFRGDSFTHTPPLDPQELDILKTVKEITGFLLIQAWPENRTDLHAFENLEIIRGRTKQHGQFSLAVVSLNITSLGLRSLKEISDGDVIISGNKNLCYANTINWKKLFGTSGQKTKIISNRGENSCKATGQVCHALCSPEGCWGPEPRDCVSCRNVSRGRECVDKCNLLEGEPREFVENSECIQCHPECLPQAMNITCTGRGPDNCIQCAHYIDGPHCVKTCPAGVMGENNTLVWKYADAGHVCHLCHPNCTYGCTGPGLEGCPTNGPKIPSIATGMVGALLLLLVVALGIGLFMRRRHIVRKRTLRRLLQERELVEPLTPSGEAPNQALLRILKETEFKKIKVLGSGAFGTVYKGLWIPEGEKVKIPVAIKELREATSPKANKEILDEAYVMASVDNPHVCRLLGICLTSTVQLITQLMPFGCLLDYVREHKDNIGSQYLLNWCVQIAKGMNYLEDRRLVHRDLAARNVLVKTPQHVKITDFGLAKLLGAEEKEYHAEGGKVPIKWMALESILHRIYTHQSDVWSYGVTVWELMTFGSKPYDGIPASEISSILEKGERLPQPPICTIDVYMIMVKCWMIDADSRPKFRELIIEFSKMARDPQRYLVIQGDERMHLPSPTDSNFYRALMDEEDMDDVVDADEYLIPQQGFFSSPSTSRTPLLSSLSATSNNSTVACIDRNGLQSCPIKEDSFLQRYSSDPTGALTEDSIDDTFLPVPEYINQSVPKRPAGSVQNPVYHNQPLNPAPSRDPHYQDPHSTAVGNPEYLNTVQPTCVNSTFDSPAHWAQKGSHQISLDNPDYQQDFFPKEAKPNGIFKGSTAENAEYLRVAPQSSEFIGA

For the molecule `C[C@@H]1[C@H](NC(=O)c2ccc(C3CC3)cc2)CCCN1c1cnc(C(N)=O)c(Nc2ccc(N3CCC(C(C)(C)O)CC3)cc2)n1` [Example D-100, 5-[(2R,3R)-3-(4-cyclopropylbenzamido)-2-methylpiperidin-1-yl]-3-({4-[4-(2-hydroxypropan-2-yl)piperidin-1-yl]phenyl}amino)pyrazine-2-carboxamide], the 50% inhibitory concentration (IC50) against TEC was at most 0.01 µM; against SRC, 0.01 to 0.1 µM; on LCK, 0.1 to 1 µM; at ITK, 0.1 to 1 µM; at EGFR, 1 to 10 µM.

In the case of `Cn1cc(Nc2nc(N3CCCC4(C3)CN(c3ccc(C5CC5)cc3)C(=O)O4)cnc2C(N)=O)cn1` [Example D-147, 5-[3-(4-cyclopropylphenyl)-2-oxo-1-oxa-3,7-diazaspiro[4.5]decan-7-yl]-3-[(1-methyl-1H-pyrazol-4-yl)amino]pyrazine-2-carboxamide], the IC50 was 0.1 to 1 µM against TEC; 0.1 to 1 µM on SRC; 0.1 to 1 µM at LCK; over 10 µM against ITK; 1 to 10 µM against EGFR.

Turning to `C[C@@H]1[C@H](NC(=O)c2ccc(C3CC3)cc2)CCCN1c1cnc(C(N)=O)c(Nc2cc(CN3CCCCC3)ns2)n1` [Example D-140, 5-[(2R,3R)-3-(4-cyclopropylbenzamido)-2-methylpiperidin-1-yl]-3-{[3-(piperidin-1-ylmethyl)-1,2-thiazol-5-yl]amino}pyrazine-2-carboxamide], the concentration for half-maximal inhibition (IC50) was in the range of 0.01 to 0.1 µM against TEC; 0.01 to 0.1 µM at SRC; 0.01 to 0.1 µM on LCK; 0.01 to 0.1 µM against ITK; 1 to 10 µM at EGFR.

For the molecule `CN1CCC(n2cc(Nc3nc(N4CCC[C@@H](n5ccc6cc(C7CC7)ccc6c5=O)C4)cnc3C(N)=O)cn2)CC1` [Example D-141, 5-[(3R)-3-(6-cyclopropyl-1-oxo-1,2-dihydroisoquinolin-2-yl)piperidin-1-yl]-3-{[1-(1-methylpiperidin-4-yl)-1H-pyrazol-4-yl]amino}pyrazine-2-carboxamide], the IC50 was 0.01 to 0.1 µM against TEC; 0.1 to 1 µM on SRC; 0.1 to 1 µM on LCK; 0.1 to 1 µM against ITK; 1 to 10 µM against EGFR.

With `C[C@@H]1[C@H](n2ccc3cc(C4CC4)ccc3c2=O)CCCN1c1cnc(C(N)=O)c(Nc2ccc(N3CCN(C)CC3)cc2)n1` [Example D-6, 5-[(2R,3R)-3-(6-cyclopropyl-1-oxo-1,2-dihydroisoquinolin-2-yl)-2-methylpiperidin-1-yl]-3-{[4-(4-methylpiperazin-1-yl)phenyl]amino}pyrazine-2-carboxamide], the IC50 against TEC lay in the range of 0.01 to 0.1 µM; against SRC it was 0.01 to 0.1 µM; on LCK, 0.01 to 0.1 µM; at ITK, 0.1 to 1 µM; at EGFR it was 0.1 to 1 µM.

With `C[C@@H]1[C@H](NC(=O)c2ccc(C3CC3)cc2F)CCCN1c1cnc(C(N)=O)c(Nc2ccc(S(=O)(=O)N3CCN(C)CC3)cc2)n1` [Example D-130, 5-[(2R,3R)-3-(4-cyclopropyl-2-fluorobenzamido)-2-methylpiperidin-1-yl]-3-({4-[(4-methylpiperazin-1-yl)sulfonyl]phenyl}amino)pyrazine-2-carboxamide], the half-maximal inhibitory concentration (IC50) lay in the range of 0.1 to 1 µM against TEC; 0.1 to 1 µM against SRC; 1 to 10 µM at LCK; 0.1 to 1 µM at ITK; 1 to 10 µM at EGFR.

For `Cc1ccc(-c2cnc([C@@H]3CCCN(c4cnc(C(N)=O)c(Nc5cc(C)ns5)n4)[C@@H]3C)[nH]2)cc1` [Example D-131, 3-[(3-methyl-1,2-thiazol-5-yl)amino]-5-[(2R,3R)-2-methyl-3-[5-(4-methylphenyl)-1H-imidazol-2-yl]piperidin-1-yl]pyrazine-2-carboxamide], the concentration for half-maximal inhibition (IC50) was in the range of 0.1 to 1 µM against TEC; 0.1 to 1 µM at SRC; 0.1 to 1 µM on LCK; 1 to 10 µM at ITK; 0.1 to 1 µM against EGFR.

For the molecule `Cc1cc(Nc2nc(N3CCCC(c4ncc(-c5ccccc5)[nH]4)C3)cnc2C(N)=O)sn1` [Example D-164, 3-[(3-methyl-1,2-thiazol-5-yl)amino]-5-[3-(4-phenyl-3H-imidazol-2-yl)piperidin-1-yl]pyrazine-2-carboxamide], the IC50 lay in the range of 0.1 to 1 µM against TEC; 0.1 to 1 µM against SRC; 0.1 to 1 µM at LCK; 1 to 10 µM against ITK; 0.1 to 1 µM against EGFR.

For the molecule `C[C@@H]1[C@H](NC(=O)c2ccc(C3CC3)cc2)CCCN1c1cnc(C(N)=O)c(Nc2ccc(OC3CCN(CC(F)(F)F)CC3)cc2)n1` [Example D-98, 5-[(2R,3R)-3-(4-cyclopropylbenzamido)-2-methylpiperidin-1-yl]-3-[(4-{[1-(2,2,2-trifluoroethyl)piperidin-4-yl]oxy}phenyl)amino]pyrazine-2-carboxamide], the concentration for half-maximal inhibition (IC50) was 0.1 to 1 µM at TEC; over 10 µM against SRC; over 10 µM on LCK; 1 to 10 µM against ITK; over 10 µM against EGFR.

`C[C@H]1CC[C@@H](NC(=O)c2ccc(C3CC3)cc2)CN1c1cnc(C(N)=O)c(Nc2ccc(N3CCN(C)CC3)cc2)n1` [Example D-154, 5-[(2S,5R)-5-(4-cyclopropylbenzamido)-2-methylpiperidin-1-yl]-3-{[4-(4-methylpiperazin-1-yl)phenyl]amino}pyrazine-2-carboxamide]: the IC50 at TEC is 0.1 to 1 µM; on SRC, 0.1 to 1 µM; on LCK it was 0.1 to 1 µM; against ITK it was 1 to 10 µM; against EGFR, over 10 µM.

Take `Cc1ccc(-c2cnc([C@@H]3CCCN(c4cnc(C(N)=O)c(Nc5cc(C)ns5)n4)C3)[nH]2)cc1` [Example D-137, 3-[(3-methyl-1,2-thiazol-5-yl)amino]-5-[(3R)-3-[5-(4-methylphenyl)-1H-imidazol-2-yl]piperidin-1-yl]pyrazine-2-carboxamide]: the IC50 at TEC was 1 to 10 µM; at SRC, 1 to 10 µM; at LCK it was 1 to 10 µM; against ITK, over 10 µM; on EGFR, 1 to 10 µM.

For `C[C@@H]1[C@H](NC(=O)c2ccc(OC(F)(F)F)cc2)CCCN1c1cnc(C(N)=O)c(Nc2cnn(C)c2)n1` [Example D-95, 3-[(1-methyl-1H-pyrazol-4-yl)amino]-5-[(2R,3R)-2-methyl-3-[4-(trifluoromethoxy)benzamido]piperidin-1-yl]pyrazine-2-carboxamide], the IC50 on TEC is 0.01 to 0.1 µM; against SRC, 0.1 to 1 µM; on LCK, 0.1 to 1 µM; at ITK, 0.1 to 1 µM; on EGFR, 0.1 to 1 µM.

In the case of `C[C@H]1CC[C@@H](NC(=O)c2ccc(C3CC3)cc2)CN1c1cnc(C(N)=O)c(Nc2ccc(N3CCN(C)CC3)c(F)c2)n1` [Example D-150, 5-[(2S,5R)-5-(4-cyclopropylbenzamido)-2-methylpiperidin-1-yl]-3-{[3-fluoro-4-(4-methylpiperazin-1-yl)phenyl]amino}pyrazine-2-carboxamide], the half-maximal inhibitory concentration (IC50) against TEC was at most 0.01 µM; at SRC it was 0.01 to 0.1 µM; on LCK, 0.01 to 0.1 µM; on ITK, 0.1 to 1 µM; against EGFR, 0.1 to 1 µM.
